PubChem BioAssay AID743267 (Broad Institute, 2014)

Test system: human bronchial epithelial cells, CFTR corrector, plate reader
Test: rescue of ΔF508 CFTR function, airway epithelium – human bronchial epithelial cells, plate reader, cherry-pick, two tests, dose response (AID 743267)
Conditions: measured here: test 1 replicate run

Row | SMILES | AC50 [µM]
1 | COc1ccc(S(=O)(=O)N2CC[C@@H]3[C@@H](CO)N(C)c4ccc(-c5ccc(F)cc5)cc4[C@@H]32)cc1 | 13
2 | CO[C@@H](CN(C)S(=O)(=O)c1ccc(C)cc1)[C@H](C)CN([C@@H](C)CO)S(=O)(=O)c1cccc(Cl)c1 | 5.49
3 | CN1c2ccc(-c3ccc(F)cc3)cc2[C@H]2[C@H](CCN2S(=O)(=O)c2cccc(F)c2)[C@@H]1CO | 7.66
4 | O=C(Cc1ccccc1)N1CC(=O)N2[C@H](CO)[C@@H](c3ccc(-c4ccccc4)cc3)[C@@H]2C1 | 24.6
5 | C[C@H](CO)N1C[C@H](C)[C@@H](CN(C)Cc2ccc(Cl)c(Cl)c2)Oc2ccc(NC(=O)Nc3ccc(C(F)(F)F)cc3)cc2CC1=O | 16
6 | CN1C(=O)c2cc(NC(=O)c3ccc(Cl)cc3)ccc2OC[C@@H]2O[C@H](CC(=O)NCc3cccc(F)c3)CC[C@H]21 | 4.62
7 | O=C(C1CCCC1)N1CC(=O)N2[C@H](CO)[C@@H](c3ccc(-c4ccccc4F)cc3)[C@@H]2C1 | 4.47
8 | Cc1ccc(-c2ccc3c(c2)O[C@@H](CN(C)Cc2ccccn2)[C@H](C)CN([C@H](C)CO)S3(=O)=O)cc1 | 13.6
9 | CN1c2ccc(-c3ccc(C#N)cc3)cc2[C@H]2[C@H](CCN2S(=O)(=O)c2cccc(F)c2)[C@@H]1CO | 16
10 | Cc1ccc(-c2ccc3c(c2)O[C@H](CN(C)Cc2ccccn2)[C@@H](C)CN([C@H](C)CO)S3(=O)=O)cc1 | 5.08
11 | CS(=O)(=O)N1CC(=O)N2[C@H](C1)[C@H](c1ccc(C#Cc3ccc(F)cc3)cc1)[C@@H]2CO | 23.9

Same assay, conditions: measured here: test 2 replicate run

Row | SMILES | AC50 [µM]
12 | CCSc1nnc(N2C(=O)C(O)=C(C(=O)c3ccco3)C2c2cccc(OC)c2)s1 (centres undefined) | > 50
13 | Cc1ccc(NC(=O)c2ccc(Cl)c(S(=O)(=O)Nc3c(C)n(C)n(-c4ccccc4)c3=O)c2)cc1Cl | 30.3
14 | COc1ccc(C2C3=C(COC3=O)Oc3cc4c(cc32)OCO4)cc1OC (centres undefined) | 3.72
15 | CCOC(=O)[C@]12CCCC=C1N(Cc1cccc3ccccc13)C(=O)[C@H](CC(=O)NCc1cccc(C(F)(F)F)c1)C2 | 30
16 | COc1cccc(C2=CC(c3ccccc3)n3nnnc3N2)c1 (centres undefined) | 3.85
17 | c1ccc2c(NCCCN3CCOCC3)c3ccccc3nc2c1 | 3.51
18 | CCOc1ccc(-c2cc(C(=O)N3CCN(c4ccccn4)CC3)c3ccccc3n2)cc1 | 16
19 | CCCOc1cc(N(CC)CC)ccc1/C=C(/C#N)c1nc2ccc(C)cc2[nH]1 | 6.15
20 | O=C(NCCCN1CCOCC1)c1cc(S(=O)(=O)N2CCOCC2)c(Cl)cc1Cl | > 50
21 | O=C(Nc1ccc(Br)cn1)c1cccc2ccccc12 | 1.97
22 | O=C(c1ccc(Br)cc1)c1cc([N+](=O)[O-])ccc1N1CCOCC1 | 1.69
23 | CCCC(=O)NC1=C(Cl)C(=O)c2ccccc2C1=O | 11.8
24 | COc1ccccc1/C=N/NC(=O)c1cc2c(OC)c(OC)ccc2[nH]1 | 0.802
25 | COc1ccc(C)cc1Nc1c2c(nc3ccccc13)CCC2 | 0.708
26 | Cc1cnc(NC(=O)c2ccc3c(c2)OCCO3)s1 | 4.71
27 | COc1cc(OC)c2c(-c3cccc(-c4ccc(OC)c(OC)c4)c3)cc(=O)oc2c1 | 0.594
28 | O=[N+]([O-])c1ccc(Sc2cccc[n+]2[O-])c2nonc12 | 12.7
29 | O=C(NCCOc1ccccc1)c1cc([N+](=O)[O-])ccc1N1CCOCC1 | 2.66
30 | Cc1cc(C)c2nc(Cl)c(CN(Cc3ccco3)C(=O)Nc3ccccc3C)cc2c1 | 2.87
31 | COc1cc(/C=C/C(=O)c2ccc3c(c2)OCO3)cc(Cl)c1O | 15.6
32 | Cc1cnc(NC(=O)CCc2ccccc2)s1 | 6.6
33 | CN(C)S(=O)(=O)c1ccc2c(c1)/C(=C/c1cc3c([nH]1)CCCC3)C(=O)N2 | 6.59
34 | COc1cc(C(=O)Nc2ccc3c(c2)ncn3C)cc(OC)c1OC | 3.9
35 | COc1cc(-c2noc(C)c2C#Cc2ccccn2)cc(OC)c1OC | 0.747

Row | SMILES | AC50 [µM]
36 | N#CC(C#N)=C1C=C2C=C(N3CCCCCC3)CCC2CC1 (centres undefined) | 0.239
37 | COc1ccc2c(c1OC)OCC2C (centres undefined) | 30.2
38 | N=C1/C(=C/c2cccn2CCOc2ccccc2)C(=O)N=C2SC=C(c3ccccc3)N12 | 10.8
39 | COc1ccc(-c2cc(C(F)F)n3ncc(C(=O)N4CCc5ccccc54)c3n2)cc1 | 16.1
40 | O=C(CN(Cc1ccco1)Cc1ccco1)Nc1cc(S(=O)(=O)N2CCCCC2)ccc1Cl | 17.2
41 | CC(=O)Nc1cccc(-c2ccnc3c2CC(C)(C(=O)Nc2ccc4c(c2)OCO4)O3)c1 (centres undefined) | 0.973
42 | COc1ccc(OC)c2[nH]c(C(=O)N/N=C/c3ccccc3O)cc12 | 2.6
43 | CCOC(=O)c1ccc(Nc2sc(C(=O)c3cccc([N+](=O)[O-])c3)c(N)c2C#N)cc1 | 1.84
44 | CC(=O)O[C@H]1C(=O)[C@@]2(C)[C@H]([C@H](OC(=O)c3ccccc3)[C@]3(O)C[C@H](OC(=O)[C@H](O)C(NC(=O)c4ccccc4)c4ccccc4)C(C)=C1C3(C)C)[C@]1(OC(C)=O)CO[C@@H]1C[C@@H]2O (some centres undefined) | 3.59
45 | Cn1cccc1/C=C1\SC(=Nc2ccc(O)cc2)NC1=O | 0.315
46 | Nc1ccc2ccc3cccc[n+]3c2c1 | 21.3
47 | CCC1=Nc2cc(C(=O)NCC3CCCO3)ccc2Sc2ccc(Cl)cc21 (centres undefined) | 7.26
48 | COC(=O)C1=CN(c2ccc3c(c2)OCO3)C(N)=C(C#N)C1c1cccc(F)c1 (centres undefined) | 1.55
49 | C#C[C@]1(O)CC[C@H]2[C@@H]3CCc4cc(OC5CCCC5)ccc4[C@H]3CC[C@@]21C | 3.31
50 | O=C(N=Nc1c(O)[nH]c2ccc(Br)cc12)c1ccccc1-n1cccc1 | 2.33
51 | CCN1/C(=C/c2ccc3cc(C)cc(C)c3[n+]2CC)Sc2cc(C)ccc21 | 12.4
52 | COc1cc(/C=C2\SC(=S)N(NC(=O)c3ccncc3)C2=O)ccc1O | 13.2
53 | CC(=O)Nc1sc2c(c1-c1nc3ccccc3s1)CN(C(C)C)CC2 | 1.43
54 | Cc1ccc(C2NC(=O)c3ccccc3N2)c(C)c1 (centres undefined) | 5.08
55 | COc1cccc(Sc2ccccc2/C=N/NC(N)=O)c1 | 41.6
56 | NS(=O)(=O)c1ccc(CCNc2nn3c(-c4cccc(OC(F)(F)F)c4)cnc3s2)cc1 | 1.99
57 | Cc1cc(C(=O)NNC(=O)c2ccc(Cl)c(S(N)(=O)=O)c2)c(C)o1 | 6.93
58 | COc1cc2c(cc1OC)C(c1cccs1)N(C(=O)c1cccnc1)CC2 (centres undefined) | 4.9
59 | O=C(NC(=S)Nc1ccc(-c2ccccc2)cc1)c1ccccc1 | > 50

Row | SMILES | AC50 [µM]
60 | COc1ccc(/C(C)=N/NC(=O)c2cccc(S(=O)(=O)N3CCCC3)c2)c(O)c1 | > 50
61 | COc1ccc(Nc2nc(-c3sc(C)nc3C)cs2)cc1 | 0.272
62 | Cc1ccccc1-c1nc(CS(=O)(=O)CC(=O)NCc2ccccc2)c(C)o1 | > 50
63 | COc1cccc(/C=N/Nc2ncnc(Cl)c2N)c1O | 12.8
64 | N#Cc1nc(NCC(F)F)nc(Nc2cc(F)cc(F)c2)n1 | 16
65 | c1ccc(CCNc2nc(-c3ccccn3)nc3ccccc23)cc1 | 2.77
66 | COC(=O)C1CC23C=CCN4CCC5(c6ccccc6NC15C2C)C43 (centres undefined) | 4.17
67 | O=P(Oc1ccc(-c2ccccc2)cc1)(N1CC1)N1CC1 | > 50
68 | COc1ccc(CC(=O)NCc2ccc(-n3cccc3)cc2)cc1OC | 3.53
69 | N#CC1=C(N)Oc2c(ccc3cccnc23)C1c1ccccc1 (centres undefined) | 2.97
70 | N#Cc1ccc(-c2cccs2)nc1SCc1cccnc1 | 0.519
71 | CN1C(=O)c2cccc3c(N)ccc(c23)C1=O | 18.3
72 | Cn1cc(C(=O)OCC2CCN(CCNS(C)(=O)=O)CC2)c2ccccc21 | > 50
73 | O=[N+]([O-])c1ccc(N2CCOCC2)c2c1no[n+]2[O-] | 2.76
74 | CCC1(C)OC(c2ccccc2)=C/C(=C/C=C2C(=O)NC(=O)NC2=O)O1 (centres undefined) | 38.7
75 | Cc1c(C(=O)N/N=C/c2c(O)ccc3ccccc23)nnn1-c1nonc1N | 0.462
76 | Cc1ccc(N(C)S(=O)(=O)c2ccc(-c3cnc(C4CC4)o3)cc2)cc1 | 1.17
77 | CC(=O)Oc1ccc(N2C(=O)c3cccc4c([N+](=O)[O-])ccc(c34)C2=O)cc1 | 20.6
78 | COc1ccc(Cl)cc1NC(=O)CN(C)CC(=O)Nc1cc(OC)c(OC)c(OC)c1 | 8.47
79 | CC(=O)Nc1ccc(-c2csc(NC(=O)CN3C(=O)NC4(CCCC4)C3=O)n2)cc1 | > 50
80 | Fc1ccc(/C=N/NC(=S)Nc2ccc(Cl)cc2Cl)cc1 | 32.2
81 | COc1cccc(C2c3cc4c(cc3OC(NNC(N)=O)C2C)OCO4)c1O (centres undefined) | 3.18
82 | CC1(C)OC(c2ccccc2)=C/C(=C/C=C2C(=O)NC(=S)NC2=O)O1 | 16.9
83 | COc1ccc(NC(=O)C2(C)Cc3c(-c4cccc(NC(C)=O)c4)ccnc3O2)cc1 (centres undefined) | 4.58

Row | SMILES | AC50 [µM]
84 | Cc1cc(NCc2ccccn2)n2nc(C)c(-c3ccccc3)c2n1 | 4.77
85 | O=c1c(O)c(-c2cccs2)oc2ccc(Cl)cc12 | 6.12
86 | Cc1cccc(NC(=S)N/N=C/c2cccc(O)c2)c1C | 3.86
87 | COc1ccc2sc3cccc(NCCN(C)C)c3c(=O)c2c1 | 8.47
88 | COC(=O)C1=CN(c2ccc(OC)cc2OC)C(N)=C(C#N)C1c1ccccc1F (centres undefined) | 1.23
89 | CCOC1=C2[C@@H](CN(S(=O)(=O)c3ccc(C)cc3)[C@H]2c2ccc(Cl)cc2)[C@H]2C(=O)N(c3ccccc3)C(=O)[C@H]2C1 | > 50
90 | CC1(S(=O)(=O)O)CC(=O)c2ccccc2C1=O (centres undefined) | 28.6
91 | CCOc1ccc(NC(=O)CN(c2ccc([N+](=O)[O-])cc2)S(=O)(=O)c2ccccc2)cc1 | 18.1
92 | CC(=O)N1CCc2c(sc(NC(=O)c3ccc4c(c3)OCCO4)c2C#N)C1 | 7.74
93 | O=C(Nc1ccc(Cl)cn1)c1cccc2ccccc12 | 8.46
94 | CCOC(=O)c1sc(Nc2nc(C)cc(C)n2)nc1C | 11.5
95 | COC(=O)c1[nH]c2c(c1C)C(=O)CC(c1cccc(OC)c1)C2 (centres undefined) | 0.965
96 | COC(=O)CSC1=C(C#N)C(c2ccc(C)o2)CC(=O)N1 (centres undefined) | 8.06
97 | COCOc1cccc(CN2CCC2(C)C(=O)Nc2ccc(C)c(O)c2)c1 (centres undefined) | > 50
98 | CCOC(=O)N1CCC(NC(=O)c2ccc3c(c2)N=C(C)c2c(C)ccc(C)c2S3)CC1 | 1.67
99 | CCOc1ccc(Cl)cc1C1=CC(=O)C[C@H](c2ccc(OC)cc2)C1 | 1.92
100 | CC(=O)NC(c1ccc(Cl)cc1Cl)c1ccc2cccnc2c1O (centres undefined) | 2.63
101 | Cc1cc(N/N=C/c2ccccc2O)c2ccccc2n1 | 21.1
102 | CCOc1ccc(C(=O)N[C@H](C(=O)Nc2cccc(S(=O)(=O)N3CCCCC3)c2)C(C)C)cc1 | 46.3
103 | CCOC(=O)N1CCN(S(=O)(=O)c2ccc3c(c2)C(C)C(=O)N3)CC1 (centres undefined) | > 50
104 | CC(C)n1cc(/C=C/c2cc[n+](C)cc2)c2ccccc21 | 27.2
